Source: publication PMC6271254, “Antibacterial and EGFR-Tyrosine Kinase Inhibitory Activities of Polyhydroxylated Xanthones from Garcinia succifolia” (Molecules, 2014)
pIC50: −log10 of the molar value.

Target: epidermal growth factor receptor (EGFR) tyrosine kinase (Homo sapiens, UniProt P00533)
Assay: fluorescence tyrosine kinase assay (Antibody Beacon detection), dose-response
Type: biochemical

Chain of epidermal growth factor receptor (EGFR) tyrosine kinase (P00533 25-1210): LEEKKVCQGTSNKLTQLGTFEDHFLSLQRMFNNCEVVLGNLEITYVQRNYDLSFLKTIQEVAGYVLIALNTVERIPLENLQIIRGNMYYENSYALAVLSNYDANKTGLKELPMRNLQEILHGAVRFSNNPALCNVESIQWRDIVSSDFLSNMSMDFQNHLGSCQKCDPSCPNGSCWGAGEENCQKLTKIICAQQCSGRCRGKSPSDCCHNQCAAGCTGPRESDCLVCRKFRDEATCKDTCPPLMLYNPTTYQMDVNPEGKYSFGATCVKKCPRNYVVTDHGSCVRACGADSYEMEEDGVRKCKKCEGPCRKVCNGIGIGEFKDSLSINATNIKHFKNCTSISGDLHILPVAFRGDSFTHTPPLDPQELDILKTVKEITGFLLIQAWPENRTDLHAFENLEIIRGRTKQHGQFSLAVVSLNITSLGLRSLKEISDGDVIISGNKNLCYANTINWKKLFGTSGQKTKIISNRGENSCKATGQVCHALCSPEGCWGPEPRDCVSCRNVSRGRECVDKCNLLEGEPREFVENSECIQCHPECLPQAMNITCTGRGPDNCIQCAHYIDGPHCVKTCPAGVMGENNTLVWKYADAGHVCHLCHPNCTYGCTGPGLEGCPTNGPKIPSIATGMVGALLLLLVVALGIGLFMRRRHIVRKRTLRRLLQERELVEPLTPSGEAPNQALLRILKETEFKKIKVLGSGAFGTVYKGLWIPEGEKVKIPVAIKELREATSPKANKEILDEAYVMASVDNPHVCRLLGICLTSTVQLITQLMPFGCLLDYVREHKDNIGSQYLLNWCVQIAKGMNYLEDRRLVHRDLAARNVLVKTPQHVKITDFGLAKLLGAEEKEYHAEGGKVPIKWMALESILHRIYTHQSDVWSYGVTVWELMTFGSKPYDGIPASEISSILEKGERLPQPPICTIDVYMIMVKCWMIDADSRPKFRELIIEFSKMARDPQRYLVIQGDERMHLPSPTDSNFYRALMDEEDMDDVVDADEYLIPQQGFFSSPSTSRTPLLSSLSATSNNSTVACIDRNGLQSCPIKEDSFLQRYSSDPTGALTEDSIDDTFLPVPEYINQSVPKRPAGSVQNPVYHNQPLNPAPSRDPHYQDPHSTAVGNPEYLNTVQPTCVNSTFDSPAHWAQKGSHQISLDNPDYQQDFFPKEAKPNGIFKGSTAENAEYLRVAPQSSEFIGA

## O=c1c2cccc(O)c2oc2cccc(O)c12 [compound 1, 1,5-dihydroxyxanthone]
  pIC50: 7.04

## O=c1c2cc(O)ccc2oc2cccc(O)c12 [compound 2, 1,7-dihydroxyxanthone]
  pIC50: 6.65
